What was measured:
[1] = Solubility in water (qualitative observation); assay type: physicochemical
Method: Complex 1 was synthesized using the procedure reported by Fujita et al.,[20] and cubic bright-yellow crystals were obtained within hours. […] When a slightly lower concentration was used (0.4 mmol of platinum precursor instead of 0.5 mmol), keeping the amount of solvent constant, no crystallization occurred within a short time (3–4 h). However, some colorless needle-shaped crystals formed after an extended period of time (5–6 weeks). The crystals obtained from both conditions were analyzed via single-crystal X-ray diffractometry.
However, the release of olefin in an aqueous environment was detected to an extent of about 20% after 72 h. The chelating amino acid enhances the stability of complex 4 (>72 h) in comparison to compound 5 (69.6 ± 3.0 h).

[2] = Lipophilicity estimate from MEKC experiments (buffer/micelle partition); assay type: physicochemical; settings: three independent experiments (one for 5 and 6)
Method: The lipophilicity of the tested compounds was estimated on the basis of MEKC experiments similar to Herbert and Dorsey[37] (see Table 7). The values estimated in this way were compared with theoretical values obtained from two different methods: for platinum complexes, a previously established method[38] was used, while for the organic ligand, the Osiris Property Explorer[39] was employed.
(§1) A solution of sodium tetraborate (final borate concentration of 50 mM) and sodium dodecyl sulfate (100 mM) was used as a background electrolyte (BGE). The pH of the BGE was adjusted to 9.3 by titration with 1 M NaOH. Every new capillary was rinsed with 1 M NaOH (45 min), water (45 min), and BGE (45 min) before the first use. The capillary was kept on a constant temperature of 25 °C, whereas the sample carousel was temperature-controlled at 37 °C. Sample injection was performed in hydrodynamic mode, applying a pressure of 50 mbar for 2 s on the inlet vial. The separation voltage was set at +20 kV. If not stated differently, a wavelength of 195 nm was employed for the DAD detector. The analytic window was evaluated by using dodecaphenone as a micellar marker and methanol (HPLC grade) as an electroosmotic flow (EOF) marker. The run time required for the analysis was estimated to be 25 min. The capillary was flushed before every run with 0.1 M NaOH (3 min), water (3 min), and BGE (5 min). Every value is calculated from at least three independent measurements. The half-lives were presented as the mean ± standard deviation. All of the samples, buffers, and washing solutions were membrane-filtered (0.22 μm pore size). All samples employed for stability experiments were prepared using benzoic acid as an internal standard (IS).

[3] = Stability in concentrated trimethylglycine (TMG) aqueous solution followed by capillary electrophoresis; assay type: physicochemical; settings: dissolved in 50% w/v TMG, diluted to final TMG 25%; CE at 230 nm
Text: Kadokawa et al.[35] reported that a highly concentrated solution of trimethyl glycine (TMG, also known as betaine) is able to improve the solubility of cisplatin in water without affecting the pharmacological proprieties of this drug. The mechanism behind this effect seems to lie in the hydrogen bond acceptor property of the carboxylate of TMG, which establishes hydrogen bonds with the amino groups of cisplatin. Betaine is a nontoxic compound and is highly soluble in water. On the basis of this study, we decided to test the solubility of 3 in a highly concentrated (50% w/v) TMG aqueous solution. The platinum compound was soluble enough to allow investigations with the established protocol for capillary electrophoresis. TMG has a strong absorption at low wavelengths, and therefore, a wavelength of 230 nm was chosen instead of 195 nm for recording the electropherograms with TMG.
as §1

human recombinant COX-1 = molecular target: T1, human recombinant COX-1 (Homo sapiens, UniProt P23219); experiment: COX-1 inhibition, enzyme immunoassay (COX Inhibitor Screening Assay); assay type: biochemical; settings: 2 min incubation
T1 construct: purchased Cayman Chemicals
Method: The incubation time of the compounds with the respective isoenzymes was exactly 2 min. The results are presented as the mean ± SD of three independent experiments with two replicates of each experiment.

[4] = Stability in aqueous solution followed by capillary electrophoresis; assay type: physicochemical
Method: The stability of complexes 1–4 was tested in an aqueous solution, to investigate how the different ways of amino acid coordination impacts aqueous degradation (see Table 4). The stability of complex 5 was previously measured in a 50% methanolic solution.[4]
as §1

[5] = tested on: HT-29 colon carcinoma cell line; experiment: MTT metabolic activity (cytotoxicity) assay, HT-29; assay type: cell-based; settings: 72 h incubation
Method: (§2) In order to determine the antitumor activity of the platinum complexes, in vitro cytotoxicity tests were performed. Compounds 1–4 were tested with cisplatin as a reference on the breast cancer cell line MCF-7 and the colon carcinoma cell line HT-29. Complexes 1, 4, and 5, as well as the ligand (but-3-en-1-yl 2-acetoxybenzoate, 6) were additionally evaluated on MDA-MB-231 cells and A2780cis cells, also using cisplatin as a reference. The metabolic activity as an indicator of cytotoxicity was determined by a classical 3-(4,5-dimethylthiazol-2-yl)-2,5-diphenyltetrazoliumbromid (MTT) assay.
(§3) The cell lines A2780cis and MDA-MB-231 were cultivated in RPMI 1640 without phenol red (PAN Biotech, Aidenbach, Germany), supplemented with L-glutamine (2 mM), 100 μg/mL penicillin, 100 μg/mL streptomycin, and FCS (10%) (all from Invitrogen Corporation, Gibco, Paisley, Scotland) at 37 °C in a 5% CO2/95% air atmosphere, and passaged twice per week. To maintain resistance, A2780cis cells were incubated every second week with cisplatin (1 μM). The cell lines MCF-7 and HT-29 were grown in DMEM without phenol red (PAN Biotech, Aidenbach, Germany), containing L-glutamine, 100 μg/mL penicillin, 100 μg/mL streptomycin, sodium pyruvate ([…]) (PAN Biotech), and FCS (10%) under the same conditions as the other cell lines.
(§4) The exponentially growing cell lines were seeded at a density of 2000 cells/well for MCF-7 cells, 4000 cells/well for HT-29 cells and MDA-MB-231 cells, and 8000 cells/well for A2780cis cells, respectively, into clear flat-bottom 96-well plates in triplicates. Following 24 h of incubation for adherence at 37 °C in a humidified atmosphere (5% CO2/95% air), the compounds were added to reach the desired concentrations between 10 and 100 μM, respectively. All stock solutions were prepared in dimethylformamide at a concentration of 100 mM and were then diluted with the respective cell-culture medium to the appropriate concentrations. After another 72 h of incubation, the cellular metabolic activity was measured by employing a MTT assay. Hereby, the yellow tetrazolium salt is converted to a purple formazan salt by the functioning mitochondria. These purple crystals are then dissolved in DMSO and can be quantified via absorption measurements at 570 and 420 nm. The optical density of the particular medium was subtracted in order to exclude the unspecific staining caused by the FCS-containing medium. The values were calculated with Excel 2019 (Microsoft, Redmond, WA, USA) using nonlinear regression and the decal logarithm of the inhibitor versus variable slope equation, while the top constraint was set to 100%.

[6] = tested on: MCF-7 breast cancer cell line; experiment: MTT metabolic activity (cytotoxicity) assay, MCF-7; assay type: cell-based; settings: 72 h incubation
Method: as §2, §3, §4

[7] = tested on: A2780cis ovarian carcinoma cell line (cisplatin-resistant); experiment: MTT metabolic activity (cytotoxicity) assay, A2780cis; assay type: cell-based; settings: for IC50: MTT, 72 h incubation
Method: as §2, §3, §4

T1 sequence (P23219 24-599): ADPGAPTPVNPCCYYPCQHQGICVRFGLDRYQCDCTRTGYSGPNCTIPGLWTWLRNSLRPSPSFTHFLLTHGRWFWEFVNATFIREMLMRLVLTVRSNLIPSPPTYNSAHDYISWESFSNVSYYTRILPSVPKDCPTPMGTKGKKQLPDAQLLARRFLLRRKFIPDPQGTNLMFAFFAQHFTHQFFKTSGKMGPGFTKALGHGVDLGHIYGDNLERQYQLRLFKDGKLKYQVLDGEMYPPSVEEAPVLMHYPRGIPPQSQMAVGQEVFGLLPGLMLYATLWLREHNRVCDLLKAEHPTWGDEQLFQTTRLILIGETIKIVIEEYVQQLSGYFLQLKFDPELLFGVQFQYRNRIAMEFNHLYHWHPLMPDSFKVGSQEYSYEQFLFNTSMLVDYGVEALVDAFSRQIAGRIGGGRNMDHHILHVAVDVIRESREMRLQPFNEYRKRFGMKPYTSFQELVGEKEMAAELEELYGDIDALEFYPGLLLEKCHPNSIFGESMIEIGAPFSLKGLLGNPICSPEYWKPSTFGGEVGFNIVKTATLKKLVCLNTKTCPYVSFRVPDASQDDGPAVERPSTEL

C=C.C[C@H](N)C(=O)[O][Pt][Cl] [1a, (Ethylene,N-trans)(L-alaninato-N,O)chlorido(η^2-ethene)platinate(II)]
solubility in water (in words) [1]: moderately soluble in water
coefficient of partition between buffer and micelles (k′), average [2]: 0.629 ± 0.009
half-life time (τ1/2) in TMG solution [3]: 24.3 ± 2.6 h
% Inhibition COX-1 (human recombinant COX-1; 10 μM): 43.67 ± 3.87%
% Inhibition COX-1 (human recombinant COX-1; 25 μM): 73.82 ± 5.60%
half-life time (τ1/2) in water ([4]; water, CE, samples at 37 °C): >72 h
IC50 [5]: > 100 µM
IC50 [6]: > 100 µM
IC50 [7]: > 50 µM

(Ethylene,N-trans)(L-alaninato-N,O)chlorido(η^2-(but-3-en-1-yl)-2-acetoxybenzoate)platinate(II) [compound 4]
solubility in water (in words) [1]: better solubility in water
coefficient of partition between buffer and micelles (k′), average [2]: 3.383 ± 0.016
half-life time (τ1/2) in TMG solution [3]: >72 h
% Inhibition COX-1 (human recombinant COX-1; 10 μM): 56.51 ± 0.72%
% Inhibition COX-1 (human recombinant COX-1; 25 μM): 65.95 ± 4.01%
half-life time (τ1/2) in aqueous environment, 50% methanol solution ([4]; 50% methanol solution (footnote a of Table 4), CE): >72 ^a h
release of olefin in aqueous environment ([4]; after 72 h): about 20%
IC50 [5]: 20.63 ± 0.11 µM
IC50 [6]: 22.5 ± 3.23 µM
metabolic activity (residual) on A2780cis ([7]; 25 μM, without compounds set at 100%): 33.13%
IC50 [7]: 22.5 ± 0.97 µM
